According to patent publication US6903085B1, “Substituted piperidine compounds useful as modulators of chemokine receptor activity” (AstraZeneca, AB, priority 1999, dated 2005):
Structures can show the parent of a compound that is named as a salt.

Work on O=C(Cc1nc(-c2ccccn2)no1)NC1CCN(Cc2ccc(Cl)c(Cl)c2)CC1 [Example 359, N-[1-(3,4-Dichlorobenzyl)-4-piperidinyl]-2-[3-(2-pyridinyl)-1,2,4-oxadiazol-5-yl]acetamide] yielded a melting point of 145 °C. Molecule O=C(Cc1csc(-c2cnccn2)n1)NC1CCN(Cc2ccc(Cl)c(Cl)c2)CC1 [Example 100, N-[1-(3,4-Dichlorobenzyl)-4-piperidinyl]-2-[2-(2-pyrazinyl)-1,3-thiazol-4-yl]acetamide] has a melting point of 186 to 189 °C. Clc1ccc(CN2CCC(Nc3nc4ccccc4[nH]3)CC2)cc1Cl [Example 103, N-[1-(3,4-Dichlorobenzyl)-4-piperidinyl]-1H-benzimidazol-2-amine] gave a melting point of 125 °C. Cc1c(CC(=O)NC2CCN(Cc3ccc(Cl)c(Cl)c3)CC2)cnn1-c1ccccc1 [Example 95, N-[1-(3,4-Dichlorobenzyl)-4-piperidinyl]-2-(5-methyl-1-phenyl-1H-pyrazol-4-yl)acetamide] gave a melting point of 165 °C. O=C(CCc1nc(-c2ccccn2)no1)NC1CCN(Cc2ccc(Cl)c(F)c2)CC1 [Example 363, N-[1-(4-Chloro-3-fluorobenzyl)-4-piperidinyl]-3-[3-(2-pyridinyl)-1,2,4-oxadiazol-5-yl]propanamide] gave a melting point of 132 °C. O=C(CSc1ccc(C(F)(F)F)cn1)NC1CCN(Cc2ccc(Cl)c(Cl)c2)CC1 [Example 94, N-[1-(3,4-Dichlorobenzyl)-4-piperidinyl]-2-{[5-(trifluoromethyl)-2-pyridinyl]sulfanyl}acetamide] showed a melting point of 98 °C. O=C(CCCC(=O)c1ccccc1)NC1CCN(Cc2ccc(Cl)c(Cl)c2)CC1 [Example 96, N-[1-(3,4-Dichlorobenzyl)-4-piperidinyl]-5-oxo-5-phenylpentanamide] gave a melting point of 130 °C. For O=C(Nc1ccc(Cl)c(Cl)c1)NC1CCN(Cc2ccc(Cl)c(Cl)c2)CC1 [Example 105, N-[1-(3,4-Dichlorobenzyl)-4-piperidinyl]-N′-(3,4-dichlorophenyl)urea], the melting point was 189 to 190 °C. Molecule O=C(CSc1ncc(-c2ccccc2)cn1)NC1CCN(Cc2ccc(Cl)c(Cl)c2)CC1 [Example 101, N-[1-(3,4-Dichlorobenzyl)-4-piperidinyl]-2-[(5-phenyl-2-pyrimidinyl)sulfanyl]acetamide] has a melting point of 157 °C. With COc1ccc(CNC2CCN(Cc3ccc(Cl)c(Cl)c3)CC2)cc1 (as salt: hydrochloride) [Example 107, N-[1-(3,4-Dichlorobenzyl)-4-piperidinyl]-N-(4-methoxybenzyl)amine, dihydrochloride Salt] the melting point was > 250 °C. O=C(CCc1nc(-c2ccccn2)no1)NC1CCN(Cc2ccc(F)c(Cl)c2)CC1 [Example 362, N-[1-(3-Chloro-4-fluorobenzyl)-4-piperidinyl]-3-[3-(2-pyridinyl)-1,2,4-oxadiazol-5-yl]propanamide] gave a melting point of 150 °C. For Cc1sc(-c2ccc(Cl)cc2)nc1CC(=O)NC1CCN(Cc2ccc(Cl)c(Cl)c2)CC1 [Example 97, 2-[2-(4-Chlorophenyl)-5-methyl-1,3-thiazol-4-yl]-N-[1-(3,4-dichlorobenzyl)-4-piperidinyl]acetamide], the melting point was 170 °C. For O=C(CSc1ccccc1)NC1CCN(Cc2ccc(Cl)c(Cl)c2)CC1 [Example 98], the melting point was 97 to 99 °C. Molecule COc1cccc(NC(=O)NC2CCN(Cc3ccc(Cl)c(Cl)c3)CC2)c1 [Example 106, N-[1-(3,4-Dichlorobenzyyl)-4-piperidinyl]-N′-(3-methoxyphenyl)urea] has a melting point of 178 to 179 °C. O=C(CCc1nc(-c2ccccn2)no1)NC1CCN(Cc2ccc(Cl)c(Cl)c2)CC1 [Example 102, N-[1-(3,4-Dichlorobenzyl)-4-piperidinyl]-3-[3-(2-pyridinyl)-1,2,4-oxadiazol-5-yl]propanamide] gave a melting point of 155 °C. In the case of COc1cccc(NC(=O)CNC2CCN(Cc3ccc(Cl)c(Cl)c3)CC2)c1 (as salt: hydrochloride) [Example 104, 2-{[1-(3,4-Dichlorobenzyl)-4-piperidinyl]amino}-N-(3-methoxyphenyl)acetamide, dihydrochloride Salt], the melting point is reported as 274 to 276 °C. For O=C(Cc1ccc(F)cc1)NC1CCN(Cc2ccc(Cl)c(Cl)c2)CC1 [Example 99, N-[1-(3,4-Dichlorobenzyl)-4-piperidinyl]-2-(4-fluorophenyl)acetamide], the melting point was 144 to 147 °C.
